Assay [1] addresses T1, Alpha-1A adrenergic receptor (Homo sapiens, UniProt P35348).
T1 sequence (P35348 whole entry): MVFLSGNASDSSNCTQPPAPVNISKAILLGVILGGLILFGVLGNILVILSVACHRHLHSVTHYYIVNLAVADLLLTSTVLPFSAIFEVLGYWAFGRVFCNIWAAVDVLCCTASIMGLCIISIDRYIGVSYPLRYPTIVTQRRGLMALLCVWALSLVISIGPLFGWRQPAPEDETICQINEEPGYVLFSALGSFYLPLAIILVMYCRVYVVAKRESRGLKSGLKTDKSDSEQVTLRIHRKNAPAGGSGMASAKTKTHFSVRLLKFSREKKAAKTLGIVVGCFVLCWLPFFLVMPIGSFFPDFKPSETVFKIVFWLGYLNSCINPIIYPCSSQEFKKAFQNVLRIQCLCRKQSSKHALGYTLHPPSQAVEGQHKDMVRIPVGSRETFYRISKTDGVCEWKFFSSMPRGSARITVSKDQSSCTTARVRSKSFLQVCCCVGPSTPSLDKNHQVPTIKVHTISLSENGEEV
In kind it is functional, cell-based.

The target in assay [2] is D(1A) dopamine receptor (Homo sapiens, UniProt P21728).
The target in assay [3] is D(3) dopamine receptor (Homo sapiens, UniProt P35462).
Assay [4] addresses Prothrombin (Homo sapiens, UniProt P00734). Type of assay: functional.
The target in assay [5] is Histamine H3 receptor (Homo sapiens, UniProt Q9Y5N1).
Assay [6] addresses Voltage-gated inwardly rectifying potassium channel KCNH2 (Homo sapiens, UniProt Q12809). In kind it is functional. To be noted: read-out: AC50.
Assay [7] concerns the target T2, Amine oxidase [flavin-containing] A (Homo sapiens, UniProt P21397).
T2 sequence (P21397 whole entry): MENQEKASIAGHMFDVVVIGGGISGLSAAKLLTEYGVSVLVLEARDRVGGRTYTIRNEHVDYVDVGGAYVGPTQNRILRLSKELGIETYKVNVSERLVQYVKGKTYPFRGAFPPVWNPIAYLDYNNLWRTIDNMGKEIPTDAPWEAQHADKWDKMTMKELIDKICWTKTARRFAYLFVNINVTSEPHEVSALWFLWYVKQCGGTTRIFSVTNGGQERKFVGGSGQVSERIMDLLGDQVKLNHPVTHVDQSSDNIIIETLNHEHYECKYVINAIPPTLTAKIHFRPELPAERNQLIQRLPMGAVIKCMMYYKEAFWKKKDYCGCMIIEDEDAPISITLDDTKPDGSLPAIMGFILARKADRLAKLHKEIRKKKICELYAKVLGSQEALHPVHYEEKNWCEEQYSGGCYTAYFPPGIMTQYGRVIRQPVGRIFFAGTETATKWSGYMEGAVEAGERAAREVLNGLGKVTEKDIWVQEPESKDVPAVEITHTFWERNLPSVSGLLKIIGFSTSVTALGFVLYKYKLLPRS
In kind it is functional.

The target of assay [8] is T3, Progesterone receptor (Homo sapiens, UniProt P06401).
T3 sequence (P06401 whole entry): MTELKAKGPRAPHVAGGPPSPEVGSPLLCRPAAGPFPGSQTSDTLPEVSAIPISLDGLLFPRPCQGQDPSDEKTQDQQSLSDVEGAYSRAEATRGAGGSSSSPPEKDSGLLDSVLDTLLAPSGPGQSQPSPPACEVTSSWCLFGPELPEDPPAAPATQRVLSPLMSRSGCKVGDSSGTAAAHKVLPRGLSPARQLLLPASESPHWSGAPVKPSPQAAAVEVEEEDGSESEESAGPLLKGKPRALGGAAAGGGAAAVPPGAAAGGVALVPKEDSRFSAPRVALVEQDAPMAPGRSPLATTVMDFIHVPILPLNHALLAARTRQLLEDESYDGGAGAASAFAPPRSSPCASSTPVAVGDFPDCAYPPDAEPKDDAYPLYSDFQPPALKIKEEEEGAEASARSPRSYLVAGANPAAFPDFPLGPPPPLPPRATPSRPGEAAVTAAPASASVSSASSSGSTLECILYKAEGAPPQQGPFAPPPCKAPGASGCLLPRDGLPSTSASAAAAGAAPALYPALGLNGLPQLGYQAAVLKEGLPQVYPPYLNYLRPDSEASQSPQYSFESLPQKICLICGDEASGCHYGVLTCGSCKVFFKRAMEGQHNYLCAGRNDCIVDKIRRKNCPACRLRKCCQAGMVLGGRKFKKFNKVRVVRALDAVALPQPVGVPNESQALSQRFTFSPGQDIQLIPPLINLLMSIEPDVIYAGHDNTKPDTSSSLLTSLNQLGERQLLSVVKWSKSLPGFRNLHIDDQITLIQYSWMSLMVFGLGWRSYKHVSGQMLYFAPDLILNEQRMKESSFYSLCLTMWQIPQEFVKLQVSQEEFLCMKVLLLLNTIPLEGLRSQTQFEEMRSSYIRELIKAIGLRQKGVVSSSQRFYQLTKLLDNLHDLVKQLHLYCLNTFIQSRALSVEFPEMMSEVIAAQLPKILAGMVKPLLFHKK

In assay [9] the target is Sodium-dependent serotonin transporter (Homo sapiens, UniProt P31645).
Assay [10] deals with T4, Thromboxane A2 receptor (Homo sapiens, UniProt P21731).
T4 sequence (P21731 whole entry): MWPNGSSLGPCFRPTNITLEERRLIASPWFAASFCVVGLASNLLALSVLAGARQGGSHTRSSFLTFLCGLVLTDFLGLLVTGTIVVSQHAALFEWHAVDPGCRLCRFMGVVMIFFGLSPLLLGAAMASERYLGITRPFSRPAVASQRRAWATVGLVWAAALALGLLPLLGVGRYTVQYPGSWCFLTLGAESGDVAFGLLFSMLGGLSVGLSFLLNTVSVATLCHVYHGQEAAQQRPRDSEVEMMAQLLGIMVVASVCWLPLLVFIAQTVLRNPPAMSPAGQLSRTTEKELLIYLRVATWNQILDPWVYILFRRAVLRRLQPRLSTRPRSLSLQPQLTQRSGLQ
In kind it is functional, cell-based.

For assay [11], the target named is T5, Adenosine receptor A3 (Homo sapiens, UniProt P0DMS8).
T5 sequence (P0DMS8 whole entry): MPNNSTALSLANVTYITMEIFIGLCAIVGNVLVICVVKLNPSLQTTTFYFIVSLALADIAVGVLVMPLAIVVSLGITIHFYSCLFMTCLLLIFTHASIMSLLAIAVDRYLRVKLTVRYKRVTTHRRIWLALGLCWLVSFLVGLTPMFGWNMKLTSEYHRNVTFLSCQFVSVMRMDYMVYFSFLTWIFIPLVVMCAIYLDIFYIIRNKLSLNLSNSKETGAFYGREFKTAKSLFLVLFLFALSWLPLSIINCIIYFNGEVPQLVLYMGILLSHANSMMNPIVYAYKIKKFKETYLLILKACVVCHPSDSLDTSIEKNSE

In ChEMBL document CHEMBL5291721, “A preclinical secondary pharmacology resource illuminates target-adverse drug reaction associations of marketed drugs” (Nat Commun, 2023) one finds AC50 data, which are given here for eleven compounds.
Note: assay procedure not described here.

Histamine H3 receptor, sequence (Q9Y5N1 whole entry): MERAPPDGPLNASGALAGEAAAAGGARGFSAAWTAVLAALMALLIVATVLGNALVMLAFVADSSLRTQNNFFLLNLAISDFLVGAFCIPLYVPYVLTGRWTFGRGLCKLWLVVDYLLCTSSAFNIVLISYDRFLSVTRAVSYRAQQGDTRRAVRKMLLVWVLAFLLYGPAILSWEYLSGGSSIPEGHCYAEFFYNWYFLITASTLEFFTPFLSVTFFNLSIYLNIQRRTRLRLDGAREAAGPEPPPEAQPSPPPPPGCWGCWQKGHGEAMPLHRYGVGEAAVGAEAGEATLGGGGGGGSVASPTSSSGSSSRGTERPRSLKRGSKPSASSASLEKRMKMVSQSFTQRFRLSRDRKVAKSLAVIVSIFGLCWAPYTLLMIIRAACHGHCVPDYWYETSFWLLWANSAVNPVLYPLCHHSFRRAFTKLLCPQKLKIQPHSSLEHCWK
D(3) dopamine receptor, sequence (P35462 whole entry): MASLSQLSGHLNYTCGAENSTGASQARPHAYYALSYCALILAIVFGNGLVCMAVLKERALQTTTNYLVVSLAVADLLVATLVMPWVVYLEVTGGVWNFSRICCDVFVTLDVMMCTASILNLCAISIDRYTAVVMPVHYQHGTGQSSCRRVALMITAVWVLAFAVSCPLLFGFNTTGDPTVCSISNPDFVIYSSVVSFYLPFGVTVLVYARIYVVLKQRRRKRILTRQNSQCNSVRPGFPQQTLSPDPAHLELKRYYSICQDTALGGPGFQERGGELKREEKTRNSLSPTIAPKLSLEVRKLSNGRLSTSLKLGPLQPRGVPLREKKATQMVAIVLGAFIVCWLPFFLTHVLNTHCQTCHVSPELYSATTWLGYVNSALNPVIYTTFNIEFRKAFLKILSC
D(1A) dopamine receptor, sequence (P21728 whole entry): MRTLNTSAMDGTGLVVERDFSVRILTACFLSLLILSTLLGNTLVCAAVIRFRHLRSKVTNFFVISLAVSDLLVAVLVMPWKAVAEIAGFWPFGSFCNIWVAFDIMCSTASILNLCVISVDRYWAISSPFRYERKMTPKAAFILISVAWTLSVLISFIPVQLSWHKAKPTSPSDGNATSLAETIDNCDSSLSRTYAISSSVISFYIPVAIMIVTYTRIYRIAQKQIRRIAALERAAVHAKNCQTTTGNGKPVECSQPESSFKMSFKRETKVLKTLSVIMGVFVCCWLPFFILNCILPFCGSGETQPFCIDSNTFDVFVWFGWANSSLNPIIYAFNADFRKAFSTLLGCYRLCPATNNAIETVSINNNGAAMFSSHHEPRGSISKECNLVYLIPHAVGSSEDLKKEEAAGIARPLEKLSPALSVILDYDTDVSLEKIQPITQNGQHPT
Sodium-dependent serotonin transporter, sequence (P31645 whole entry): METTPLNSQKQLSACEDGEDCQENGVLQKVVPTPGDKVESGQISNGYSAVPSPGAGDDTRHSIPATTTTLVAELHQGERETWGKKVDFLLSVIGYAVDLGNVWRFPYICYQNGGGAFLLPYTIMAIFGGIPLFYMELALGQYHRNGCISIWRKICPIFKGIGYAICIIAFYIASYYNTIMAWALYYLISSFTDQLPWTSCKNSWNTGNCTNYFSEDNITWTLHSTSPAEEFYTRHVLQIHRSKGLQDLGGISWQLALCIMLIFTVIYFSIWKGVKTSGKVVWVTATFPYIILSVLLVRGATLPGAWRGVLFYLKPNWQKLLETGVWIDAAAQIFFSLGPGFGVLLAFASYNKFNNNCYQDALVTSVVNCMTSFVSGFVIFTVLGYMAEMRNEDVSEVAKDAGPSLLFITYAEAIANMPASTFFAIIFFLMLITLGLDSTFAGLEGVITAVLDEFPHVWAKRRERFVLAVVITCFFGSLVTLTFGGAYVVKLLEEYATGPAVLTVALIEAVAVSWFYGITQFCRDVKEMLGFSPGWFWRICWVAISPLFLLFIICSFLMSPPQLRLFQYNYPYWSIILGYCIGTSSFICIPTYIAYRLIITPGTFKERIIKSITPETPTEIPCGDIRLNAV
Voltage-gated inwardly rectifying potassium channel KCNH2, sequence (Q12809 whole entry): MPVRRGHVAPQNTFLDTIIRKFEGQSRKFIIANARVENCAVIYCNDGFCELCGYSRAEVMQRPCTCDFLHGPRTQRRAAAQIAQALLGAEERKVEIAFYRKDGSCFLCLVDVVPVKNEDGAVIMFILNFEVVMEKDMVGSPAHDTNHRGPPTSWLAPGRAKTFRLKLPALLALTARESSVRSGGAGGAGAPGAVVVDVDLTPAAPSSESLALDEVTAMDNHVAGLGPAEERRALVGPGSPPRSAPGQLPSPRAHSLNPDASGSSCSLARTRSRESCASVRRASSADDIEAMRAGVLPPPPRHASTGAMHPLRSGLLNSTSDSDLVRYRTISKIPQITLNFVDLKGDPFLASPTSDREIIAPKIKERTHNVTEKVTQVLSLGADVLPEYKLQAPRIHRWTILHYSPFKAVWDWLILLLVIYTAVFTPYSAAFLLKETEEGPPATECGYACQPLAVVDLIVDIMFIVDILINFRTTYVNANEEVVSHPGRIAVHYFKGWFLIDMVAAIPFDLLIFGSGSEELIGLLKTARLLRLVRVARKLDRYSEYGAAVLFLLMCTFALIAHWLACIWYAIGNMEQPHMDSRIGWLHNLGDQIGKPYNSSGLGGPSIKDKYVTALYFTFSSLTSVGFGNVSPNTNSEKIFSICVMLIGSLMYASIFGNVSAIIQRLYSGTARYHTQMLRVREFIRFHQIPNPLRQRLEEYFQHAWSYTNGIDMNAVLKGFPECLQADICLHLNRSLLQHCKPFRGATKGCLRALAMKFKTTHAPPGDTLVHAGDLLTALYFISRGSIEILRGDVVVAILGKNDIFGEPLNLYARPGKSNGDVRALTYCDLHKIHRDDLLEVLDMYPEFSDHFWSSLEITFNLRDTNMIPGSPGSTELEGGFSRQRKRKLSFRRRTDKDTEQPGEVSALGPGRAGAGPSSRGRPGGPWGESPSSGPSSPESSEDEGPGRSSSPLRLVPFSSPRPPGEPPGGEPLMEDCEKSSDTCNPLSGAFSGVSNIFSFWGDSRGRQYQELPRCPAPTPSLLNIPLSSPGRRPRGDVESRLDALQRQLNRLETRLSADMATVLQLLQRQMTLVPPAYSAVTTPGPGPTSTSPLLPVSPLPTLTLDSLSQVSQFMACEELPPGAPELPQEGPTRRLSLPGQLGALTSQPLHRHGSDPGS

A word on the AC50: it is the concentration giving half of the maximal activity seen. On to `CCOC(=O)CC(SP(=S)(OC)OC)C(=O)OCC` (centres undefined) [MALATHION], for which the AC50 in assay [1], in [2], in assay [3], in assay [4], in assay [5] and in [6] was above 30 µM throughout. In addition, the concentration at half-maximal activity (AC50) in assay [7], in assay [8], in [9] and in [10] was above 30 µM throughout.
Regarding `CCCCN(CCCC)CCCOC(=O)c1ccc(N)cc1` [BUTACAINE], the AC50 was above 30 µM in assay [11]; above 30 µM in assay [1]; above 30 µM in [2]; 5.52 µM in [3]; above 30 µM in assay [4]; above 30 µM in [5]. Moreover, the AC50 is 5.4 µM in assay [6], above 30 µM in assay [7], above 30 µM in assay [9] and above 30 µM in [10].
Take `CCC1C(C)=NN=C(c2ccc(OC)c(OC)c2)c2cc(OC)c(OC)cc21` (centres undefined) [TOFISOPAM]: the AC50 in assay [11], in assay [1], in assay [2], in assay [4], in assay [5] and in assay [6] was above 30 µM throughout. Further, the AC50 in assay [7], in [8], in assay [9] and in assay [10] was above 30 µM throughout.
For `C[C@@H]1C[C@H]2[C@@H]3C[C@H](F)C4=CC(=O)C(Cl)=C[C@]4(C)[C@@]3(F)[C@@H](O)C[C@]2(C)[C@@]1(O)C(=O)CO` [HALOMETASONE], the AC50 in [11], in assay [1], in assay [2], in assay [4], in assay [5] and in [6] was above 30 µM in each case. In addition, the AC50 in [7] is above 30 µM; in assay [8] it was 7.72 µM; in [9] it was above 30 µM; in [10], above 30 µM.
Turning to `O=C(O)CCn1c2c(c3ccccc31)C[C@H](NS(=O)(=O)c1ccc(F)cc1)CC2` [RAMATROBAN], the AC50 in [1], in assay [2], in assay [3], in assay [4], in [5] and in [6] was above 30 µM throughout. In addition, the AC50 in assay [7], in assay [8], in assay [9] and in assay [10] was above 30 µM throughout.
On to `O=[N+]([O-])c1cncn1CCN1CCOCC1` [NIMORAZOLE], for which the AC50 in assay [11], in assay [1], in assay [2], in assay [3], in assay [4] and in [5] was above 30 µM each time. For the same compound, the AC50 in [7], in assay [8], in assay [9] and in assay [10] was above 30 µM in each case.
Turning to `O=C(c1ccc(F)c(F)c1Nc1ccc(I)cc1F)N1CC(O)([C@@H]2CCCCN2)C1` [COBIMETINIB], the AC50 in [11] was above 30 µM; in [1] it was above 30 µM; in assay [2], 24.1 µM; in assay [3], 24.1 µM; in assay [4] it was above 30 µM; in [5], above 30 µM. Also, the AC50 is above 30 µM in assay [7], above 30 µM in assay [8], 7.82 µM in assay [9] and 17.6 µM in assay [10].
In the case of `NCc1ccccc1CC(=O)N[C@@H]1C(=O)N2C(C(=O)O)=C(CSc3nnnn3CC(=O)O)CS[C@H]12` [CEFORANIDE], the AC50 in assay [1] was above 30 µM; in assay [2] it was above 30 µM; in assay [3] it was above 30 µM; in assay [4] it was above 30 µM; in assay [5] it was above 10 µM; in assay [7], above 30 µM. Further, the AC50 in assay [8], in [9] and in assay [10] was above 30 µM throughout.
As for `NS(=O)(=O)c1cc2c(cc1Cl)NC(C1CC3C=CC1C3)NS2(=O)=O` (centres undefined) [CYCLOTHIAZIDE], the AC50 in assay [11], in [1], in [2], in assay [4], in [5] and in assay [6] was above 30 µM each time. The AC50 in assay [7], in [8], in assay [9] and in [10] was above 30 µM each time.
Turning to `NC(=O)c1cccc2cn(-c3ccc([C@@H]4CCCNC4)cc3)nc12` [NIRAPARIB], the AC50 in assay [1] was above 30 µM; in [2], above 30 µM; in [3], above 30 µM; in assay [4], above 30 µM; in assay [5] it was 26 µM; in assay [6], above 30 µM. Also, the AC50 is above 30 µM in assay [7], above 30 µM in assay [8], 1.17 µM in assay [9] and above 30 µM in [10].
As for `COc1cc(NCc2ccc3nc(N)nc(N)c3c2C)cc(OC)c1OC` [TRIMETREXATE], the AC50 in assay [1] is above 30 µM; in assay [2] it was 1.94 µM; in assay [3] it was 2.67 µM; in assay [4], above 30 µM; in assay [5] it was above 30 µM; in assay [6], 2.16 µM. The AC50 in [7] was 3.8 µM; in [8], above 30 µM; in [9], above 30 µM; in assay [10], above 30 µM.
